≈ marks a conversion by molar mass, not a printed value.
Experiments:
[1] = Selectivity ratio of MIC for methicillin-resistant Staphylococcus aureus BAA-1707 to MIC for methicillin-resistant Staphylococcus epidermidis ATCC 35984; type: functional
[2] = system: Staphylococcus epidermidis; test: Antibacterial activity against methicillin-resistant Staphylococcus epidermidis ATCC 35984 after 16 to 18 hrs by broth microdilution method; type: functional
Staphylococcus aureus [3] = test: Antibacterial activity against methicillin-resistant Staphylococcus aureus BAA-1707 after 16 to 18 hrs by broth microdilution method; type: functional
Enterococcus faecium [4] = test: Antibacterial activity against vancomycin-resistant Enterococcus faecium ATCC 700221 after 16 to 18 hrs by broth microdilution method; type: functional
HeLa = test: Cytotoxicity against human HeLa cells after 24 hrs by LDH release assay; type: cell-based
[5] = Selectivity index, ratio of IC50 for cytotoxicity against human HeLa cells to MIC for antibacterial activity against methicillin-resistant Staphylococcus epidermidis ATCC 35984; type: toxicity, cell-based; conditions: read-out: Selectivity Index
[6] = system: Staphylococcus epidermidis; test: Potency index, ratio of TPEN MIC to compound MIC for antibacterial activity against methicillin-resistant Staphylococcus epidermidis ATCC 35984; type: functional
Staphylococcus aureus [7] = test: Potency index, ratio of TPEN MIC to compound MIC for antibacterial activity against methicillin-resistant Staphylococcus aureus BAA-1707; type: functional
[8] = Selectivity ratio of MIC for vancomycin-resistant Enterococcus faecium ATCC 700221 to MIC for methicillin-resistant Staphylococcus epidermidis ATCC 35984; type: functional
[9] = system: Staphylococcus epidermidis; test: Bactericidal activity against methicillin-resistant Staphylococcus epidermidis ATCC 35984 planktonic cells after 24 hrs by CBD assay; type: functional; conditions: ATCC 35984, 24 h
[10] = system: Staphylococcus epidermidis; test: Antibiofilm activity against methicillin-resistant Staphylococcus epidermidis ATCC 35984 after 24 hrs by CBD assay; type: functional
Staphylococcus aureus [11] = test: Bactericidal activity against methicillin-resistant Staphylococcus aureus BAA-1707 planktonic cells after 24 hrs by CBD assay; type: functional; conditions: BAA-1707, 24 h
Staphylococcus aureus [12] = test: Antibiofilm activity against methicillin-resistant Staphylococcus aureus BAA-1707 after 24 hrs by CBD assay; type: functional
Enterococcus faecium [13] = test: Bactericidal activity against vancomycin-resistant Enterococcus faecium ATCC 700221 planktonic cells after 24 hrs by CBD assay; type: functional; conditions: ATCC 700221, 24 h
Enterococcus faecium [14] = test: Antibiofilm activity against vancomycin-resistant Enterococcus faecium ATCC 700221 after 24 hrs by CBD assay; type: functional
[15] = Hemolytic activity against human RBC at 200 uM after 1 hr relative to control; type: ADME, cell-based, Erythrocyte; conditions: red blood cells (erythrocytes), read-out: Activity

| Compound | Selectivity ratio [1] | MIC [2] [µM] | MIC (Staphylococcus aureus [3]) [µM] | MIC (Enterococcus faecium [4]) [µM] | IC50 (HeLa) [µM] | selectivity ratio [5] | Ratio [6] | Ratio (Staphylococcus aureus [7]) | Selectivity ratio [8] | MBC [9] [µM] | MBEC [10] [µM] | MBC (Staphylococcus aureus [11]) [µM] | MBEC (Staphylococcus aureus [12]) [µM] | MBC (Enterococcus faecium [13]) [µM] | MBEC (Enterococcus faecium [14]) [µM] | hemolysis at 1 h, 200 µM [15] [%] |
| --- | --- | --- | --- | --- | --- | --- | --- | --- | --- | --- | --- | --- | --- | --- | --- | --- |
| C#CCNCc1ccc2c(Br)cc(Br)c(O)c2n1 | > 2 | 0.3 (≈ 0.111 µg/mL) | 3.13 (≈ 1.16 µg/mL) | 1.56 (≈ 0.577 µg/mL) | > 25 | > 83 | 16 - 42 | 16 - 42 | > 2 | – | – | – | – | – | – | – |
| CC(C)(C)OC(=O)N1CCN(Cc2ccc3c(Br)cc(Br)c(O)c3n2)CC1 | – | 0.3 (≈ 0.15 µg/mL) | 0.78 (≈ 0.391 µg/mL) | 0.59 (≈ 0.296 µg/mL) | > 100 | > 333 | – | – | – | 37.5 (≈ 18.8 µg/mL) | 6.25 | 18.8 (≈ 9.42 µg/mL) | 18.8 | 4.69 (≈ 2.35 µg/mL) | 1.56 | 2.8 |
| Oc1c(Br)cc(Br)c2ccc(CN3CCOCC3)nc12 | > 2 | 0.59 (≈ 0.237 µg/mL) | 1.56 (≈ 0.627 µg/mL) | 3.13 (≈ 1.26 µg/mL) | > 100 | > 169 | 16 - 42 | 16 - 42 | > 2 | 4.69 (≈ 1.89 µg/mL) | 2.35 | 25 (≈ 10.1 µg/mL) | >200 | 1.56 (≈ 0.627 µg/mL) | 1.17 | 2.6 |
| CCCc1ccc2c(Br)cc(Br)c(O)c2n1 | – | 0.59 (≈ 0.204 µg/mL) | 0.39 (≈ 0.135 µg/mL) | 0.78 (≈ 0.269 µg/mL) | > 50 | > 85 | – | – | – | – | – | – | – | – | – | – |
| c1ccc(CN(CCN(Cc2ccccn2)Cc2ccccn2)Cc2ccccn2)nc1 | – | 12.5 (≈ 5.31 µg/mL) | 46.9 (≈ 19.9 µg/mL) | – | – | – | – | – | – | 250 (≈ 106 µg/mL) | >2000 | 375 (≈ 159 µg/mL) | >2000 | – | – | ≤ 1 |
| C[C@H](NC(=O)OC(C)(C)C)C(=O)N1CCN(Cc2ccc3c(Br)cc(Br)c(O)c3n2)CC1 | – | 3.13 (≈ 1.79 µg/mL) | 3.13 (≈ 1.79 µg/mL) | 6.25 (≈ 3.58 µg/mL) | – | – | – | – | – | – | – | – | – | – | – | – |
| NCCOCCOCCNCc1ccc2c(Br)cc(Br)c(O)c2n1 | – | 25 (≈ 11.6 µg/mL) | 37.5 (≈ 17.4 µg/mL) | 50 (≈ 23.2 µg/mL) | – | – | – | – | – | – | – | – | – | – | – | – |
| CC(=O)NC[C@H]1CN(c2ccc(N3CCOCC3)c(F)c2)C(=O)O1 [LINEZOLID] | – | 3.13 (≈ 1.06 µg/mL) | 12.5 (≈ 4.22 µg/mL) | 3.13 (≈ 1.06 µg/mL) | – | – | – | – | – | – | – | – | – | – | – | – |
| CCCNCc1ccc2c(Br)cc(Br)c(O)c2n1 | – | – | 2.35 (≈ 0.879 µg/mL) | 3.13 (≈ 1.17 µg/mL) | > 100 | – | – | – | – | – | – | – | – | – | – | – |
| COCCOCCOCCOCc1ccc2c(Br)cc(Br)c(O)c2n1 | – | 2.35 (≈ 1.13 µg/mL) | 2.35 (≈ 1.13 µg/mL) | – | 100 | – | – | – | – | – | – | – | – | – | – | – |
| CC(C)(C)OC(=O)NCCOCCOCCNCc1ccc2c(Br)cc(Br)c(O)c2n1 | – | 3.13 (≈ 1.76 µg/mL) | 12.5 (≈ 7.04 µg/mL) | 6.25 (≈ 3.52 µg/mL) | – | – | – | – | – | – | – | – | – | – | – | – |
| COCCOCCOCc1ccc2c(Br)cc(Br)c(O)c2n1 | > 2 | 0.78 (≈ 0.339 µg/mL) | 2.35 (≈ 1.02 µg/mL) | 3.13 (≈ 1.36 µg/mL) | > 100 | > 128 | 16 - 42 | 16 - 42 | > 2 | 25 (≈ 10.9 µg/mL) | 75 | 50 (≈ 21.8 µg/mL) | 200 | 6.25 (≈ 2.72 µg/mL) | 2.35 | 4.1 |
| OCc1ccc2c(Br)cc(Br)c(O)c2n1 | – | 37.5 (≈ 12.5 µg/mL) | 100 (≈ 33.3 µg/mL) | 25 (≈ 8.32 µg/mL) | > 100 | > 2.7 | – | – | – | – | – | – | – | – | – | – |
| CCCCOCc1ccc2c(Br)cc(Br)c(O)c2n1 | > 2 | 0.3 (≈ 0.117 µg/mL) | 2.35 (≈ 0.914 µg/mL) | 12.5 (≈ 4.86 µg/mL) | > 50 | > 167 | 16 - 42 | 16 - 42 | > 2 | 37.5 (≈ 14.6 µg/mL) | 75 | – | – | – | – | 2.8 |
| Oc1c(Br)cc(Br)c2ccc(CN3CCNCC3)nc12 | – | 12.5 (≈ 5.01 µg/mL) | 25 (≈ 10 µg/mL) | 50 (≈ 20.1 µg/mL) | – | – | – | – | – | – | – | – | – | – | – | – |
| Cc1ccc2c(Br)cc(Br)c(O)c2n1 [BROQUINALDOL] | – | 1.17 (≈ 0.371 µg/mL) | – | 3.13 (≈ 0.992 µg/mL) | > 100 | – | – | – | – | – | – | – | – | – | – | – |
| CN[C@H](CC(C)C)C(=O)N[C@H]1C(=O)N[C@@H](CC(N)=O)C(=O)N[C@H]2C(=O)N[C@H]3C(=O)N[C@H](C(=O)N[C@H](C(=O)O)c4cc(O)cc(O)c4-c4cc3ccc4O)[C@H](O)c3ccc(c(Cl)c3)Oc3cc2cc(c3O[C@@H]2O[C@H](CO)[C@@H](O)[C@H](O)[C@H]2O[C@H]2C[C@](C)(N)[C@H](O)[C@H](C)O2)Oc2ccc(cc2Cl)[C@H]1O [VANCOMYCIN] | – | – | – | > 100 | – | – | – | – | – | 3 (≈ 4.35 µg/mL) | >2000 | 3.9 (≈ 5.65 µg/mL) | >2000 | > 200 | 150 | ≤ 1 |
| CCCCCCCCCC(=O)N[C@@H](Cc1c[nH]c2ccccc12)C(=O)N[C@@H](CC(N)=O)C(=O)N[C@@H](CC(=O)O)C(=O)N[C@@H]1C(=O)NCC(=O)N[C@@H](CCCN)C(=O)N[C@@H](CC(=O)O)C(=O)N[C@H](C)C(=O)N[C@@H](CC(=O)O)C(=O)NCC(=O)N[C@H](CO)C(=O)N[C@@H]([C@H](C)CC(=O)O)C(=O)N[C@@H](CC(=O)c2ccccc2N)C(=O)O[C@@H]1C [DAPTOMYCIN] | – | 12.5 (≈ 20.3 µg/mL) | 3.13 (≈ 5.07 µg/mL) | 3.13 (≈ 5.07 µg/mL) | – | – | – | – | – | – | – | – | – | – | – | – |
| CC(C)(C)OC(=O)NCC(=O)N1CCN(Cc2ccc3c(Br)cc(Br)c(O)c3n2)CC1 | – | 9.38 (≈ 5.24 µg/mL) | 25 (≈ 14 µg/mL) | 12.5 (≈ 6.98 µg/mL) | – | – | – | – | – | – | – | – | – | – | – | – |
| OCc1cn(Cc2ccc3c(Br)cc(Br)c(O)c3n2)nn1 | – | > 100 | > 100 | > 100 | – | – | – | – | – | – | – | – | – | – | – | – |
| COCCOCc1ccc2c(Br)cc(Br)c(O)c2n1 | – | 1.56 (≈ 0.61 µg/mL) | – | – | > 100 | – | – | – | – | – | – | – | – | – | – | – |
| Oc1c(Br)cc(Br)c2ccc(CNc3ccccc3)nc12 | – | 0.15 (≈ 0.0612 µg/mL) | 0.39 (≈ 0.159 µg/mL) | 0.78 (≈ 0.318 µg/mL) | 100 | 667 | – | – | – | – | – | – | – | – | – | – |

Reference: ChEMBL document CHEMBL4152318, “Halogenated quinolines bearing polar functionality at the 2-position: Identification of new antibacterial agents with enhanced activity against Staphylococcus epidermidis” (Eur J Med Chem, 2018)
